Molecules are shown by their SMILES.

Experiment [1] deals with PDE4 (cAMP-specific) in the cytosol of human polymorphonuclear leukocytes (PMNL). The experiment is described as follows: PDE4 inhibition, Method A (radioactive PDE assay after Thompson et al.). It is filed as biochemical. As to conditions: cAMP substrate, motapizone 1 μM. The method, then: (§1) The PDE activity was determined according to Thompson et al. (Adv Cycl Nucl Res 10: 69-92, 1979) with some modifications (Bauer and Schwabe, Naunyn-Schmiedeberg's Arch Pharmacol 311: 193-198, 1980). The test samples contained 20 mM Tris (pH 7.4), 5 mM MgCl2, 0.5 μM CAMP or cGMP, [^3H]cAMP or [^3H]cGMP (about 30 000 cpm/sample), the PDE isoenzyme-specific additives described in greater detail below, the indicated concentrations of inhibitor and an aliquot of the enzyme solution in a total sample volume of 200 μl. Dilution series of the compounds according to the invention were prepared in DMSO and further diluted in the samples [1:100 (v/v)], to give the desired end concentration of the inhibitors at a DMSO concentration of 1% (v/v), which for its part has only a minute effect on PDE activity.
(§2) After preincubation at 37° C. for 5 minutes, the reaction was started by addition of the substrate (CAMP or cGMP). The samples were incubated at 37° C. for a further 15 min. The reaction was terminated by addition of 50 μl 0.2 N HCl. After cooling on ice for 10 minutes and addition of 25 μg 5′-nucleotidase (snake venom from Crotalus atrox), the mixture was again incubated at 37° C. for 10 min and the samples were then applied to QAE Sephadex A-25 columns (sample volume 1 ml). The columns were eluted with 2 ml of 30 mM ammonium formate (pH 6.0). The radioactivity of the eluate was measured and corrected by the corresponding blank values (measured in the presence of denatured protein); the blank values were less than 5% of the total radioactivity. In no case did the proportion of hydrolyzed nucleotide exceed 30% of the original substrate concentration.
PDE4 (cAMP-specific) was investigated in the cytosol of human polymorphonuclear leukocytes (PMNL) [isolated from leukocyte concentrates, see Schudt et al., Arch Pharmacol 1991: 344, 682-690] using cAMP as substrate. The PDE3 inhibitor motapizone (1 μM) was used to suppress the PDE3 activity emanating from contaminated platelets.
(§3) The IC50 values were determined from the concentration-inhibition curves by nonlinear regression.
(§4) The inhibitory values of the compounds 1-16 and 22-24 have been determined according to Method A. The inhibitory values of the compounds 17-21 have been determined according to Method B.

Experiment [2] deals with T1, PDE3 (cGMP-inhibited) in homogenates of human platelets (Homo sapiens, UniProt Q14432).
T1 construct: investigated in homogenates of human platelets; from tissue; host or cells: homogenates of human platelets
Kind of experiment: PDE3 inhibition, Method A (radioactive PDE assay after Thompson et al.). The experiment is classed as biochemical. The settings on record: read-out: PDE3 [−log IC50, mol/l] (converted). On the procedure:
as §1, §2
PDE3 (cGMP-inhibited) was investigated in homogenates of human platelets (see Schudt et al., Biochem Pharmacol 1991: 42, 153-162) using CAMP or cGMP as substrate.
as §3, §4

T1 sequence (Q14432 whole entry): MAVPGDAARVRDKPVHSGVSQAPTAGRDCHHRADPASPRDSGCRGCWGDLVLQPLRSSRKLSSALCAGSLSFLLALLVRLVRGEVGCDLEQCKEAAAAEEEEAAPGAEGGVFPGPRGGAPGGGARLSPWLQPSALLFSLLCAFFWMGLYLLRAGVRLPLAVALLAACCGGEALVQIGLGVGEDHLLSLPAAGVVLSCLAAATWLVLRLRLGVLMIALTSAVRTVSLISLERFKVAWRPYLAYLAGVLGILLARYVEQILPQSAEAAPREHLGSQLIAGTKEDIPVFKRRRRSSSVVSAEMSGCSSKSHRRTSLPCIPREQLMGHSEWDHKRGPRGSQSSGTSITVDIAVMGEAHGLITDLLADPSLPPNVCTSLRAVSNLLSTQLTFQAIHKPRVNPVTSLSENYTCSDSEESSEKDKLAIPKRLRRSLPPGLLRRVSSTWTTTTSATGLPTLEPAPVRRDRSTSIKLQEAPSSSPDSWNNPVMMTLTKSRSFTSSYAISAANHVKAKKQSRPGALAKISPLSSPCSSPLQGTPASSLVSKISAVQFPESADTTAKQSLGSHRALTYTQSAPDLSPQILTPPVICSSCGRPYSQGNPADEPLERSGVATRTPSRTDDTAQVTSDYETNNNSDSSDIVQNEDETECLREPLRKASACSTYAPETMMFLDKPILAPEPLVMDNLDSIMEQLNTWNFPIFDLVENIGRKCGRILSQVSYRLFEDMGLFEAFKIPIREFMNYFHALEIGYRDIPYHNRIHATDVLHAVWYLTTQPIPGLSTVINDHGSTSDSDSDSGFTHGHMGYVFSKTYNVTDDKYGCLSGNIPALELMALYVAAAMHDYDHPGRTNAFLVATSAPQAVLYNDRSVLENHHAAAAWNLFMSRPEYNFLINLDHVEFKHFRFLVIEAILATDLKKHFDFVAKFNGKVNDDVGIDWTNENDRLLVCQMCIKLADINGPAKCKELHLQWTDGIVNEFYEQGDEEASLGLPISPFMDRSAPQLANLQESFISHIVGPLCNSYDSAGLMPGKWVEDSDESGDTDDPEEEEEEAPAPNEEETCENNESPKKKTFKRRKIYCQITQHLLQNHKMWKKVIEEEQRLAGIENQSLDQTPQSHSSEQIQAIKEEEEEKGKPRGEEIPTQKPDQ

Consider `CCOc1cc2c(cc1OC)C(c1ccc(C(=O)N(C(C)C)C(C)CCOCc3ccccc3)cc1)=N[C@@H]1CCN(C)C[C@H]21` (mixture of isomers) [Compound 10, N-(3-Benzyloxy-1-methyl-propyl)-4-((4aR,10bS)-9-ethoxy-8-methoxy-2-methyl-1,2,3,4,4a,10b-hexahydro-benzo[c][1,6]naphthyridin-6-yl)-N-isopropyl-benzamide], for which the “PDE4 [−log IC50, mol/l]” value in experiment [1] came to 8.9 mol/l. For the same compound, the IC50 in experiment [2] was 100 nM.
On the same counts, the results for `CCOc1cc2c(cc1OC)C(c1ccc(C(=O)NC(CC)COC)cc1)=N[C@@H]1CCN(C)C[C@H]21.Cl` (mixture of isomers) [Compound 3, 4-((4aR,10bS)-9-Ethoxy-8-methoxy-2-methyl-1,2,3,4,4a,10b-hexahydro-benzo [c][1,6]naphthyridin-6-yl)-N-(1(rac)-methoxymethyl-propyl)-benzamide; hydrochloride] are 9.0 mol/l and 1000 nM.
As for `CCOc1cc2c(cc1OC)C(c1ccc(C(=O)NCCCOC(C)C)cc1)=N[C@@H]1CCN(C)C[C@H]21.Cl` [Compound 1, 4-(4aR,10bS)-9-Ethoxy-8-methoxy-2-methyl-1,2,3,4,4a,10b-hexahydro-benzo [c][1,6]naphthyridin-6-yl)-N-(3-isopropoxy-propyl)-benzamide; hydrochloride], in experiment [2], the IC50 is 631 nM.
For the compound `CCOc1cc2c(cc1OC)C(c1ccc(C(=O)NCCCOC(C)C)cc1)=N[C@@H]1CCN(C)C[C@H]21.Cl` [Compound 1], the “PDE4 [−log IC50, mol/l]” value in experiment [1] is given as 8.9 mol/l.
`CCOc1cc2c(cc1OC)C(c1ccc(C(=O)N[C@@H](C)COC)cc1)=N[C@@H]1CCN(C)C[C@H]21.Cl` [Compound 2, 4-((4aR,10bS)-9-Ethoxy-8-methoxy-2-methyl-1,2,3,4,4a,10b-hexahydro-benzo [c][1,6]naphthyridin-6-yl)-N-((S)-2-methoxy-1-methyl-ethyl)-benzamide; hydrochloride]: the “PDE4 [−log IC50, mol/l]” value in experiment [1] is listed as 8.5 mol/l. Besides, the IC50 in experiment [2] is 1580 nM.
Consider `CCOCCCNC(=O)c1ccc(C2=N[C@@H]3CCN(C)C[C@@H]3c3cc(OCC)c(OC)cc32)cc1.Cl` [Compound 4, 4-((4aR,10bS)-9-Ethoxy-8-methoxy-2-methyl-1,2,3,4,4a,10b-hexahydro-benzo [c][1,6]naphthyridin-6-yl)-N-(3-ethoxy-propyl)-benzamide; hydrochloride], for which, in experiment [1], the “PDE4 [−log IC50, mol/l]” value is reported as 8.4 mol/l. Also, in experiment [2], the IC50 is 794 nM.
For the compound `CCOc1cc2c(cc1OC)C(c1ccc(C(=O)N(CC)CCOC)cc1)=N[C@@H]1CCN(C)C[C@H]21.Cl` [Compound 5, 4-((4aR,10bS)-9-Ethoxy-8-methoxy-2-methyl-1,2,3,4,4a,10b-hexahydro-benzo [c][1,6]naphthyridin-6-yl)-N-ethyl-N-(2-methoxy-ethyl)-benzamide; hydrochloride], the “PDE4 [−log IC50, mol/l]” value in experiment [1] is 8.9 mol/l. Also, in experiment [2], the IC50 is 200 nM.
Taken in the same sequence, the figures for `CCCN(CCOC)C(=O)c1ccc(C2=N[C@@H]3CCN(C)C[C@@H]3c3cc(OCC)c(OC)cc32)cc1.Cl` [Compound 6, 4-((4aR,10bS)-9-Ethoxy-8-methoxy-2-methyl-1,2,3,4,4a,10b-hexahydro-benzo [c][1,6]naphtpyridin-6-yl)-N-(2-methoxy-ethyl)-N-propyl-benzamide; hydrochloride] were 9.2 mol/l and 126 nM.
As for `CCOc1cc2c(cc1OC)C(c1ccc(C(=O)N(CCOC)C(C)C)cc1)=N[C@@H]1CCN(C)C[C@H]21.Cl` [Compound 7, 4-((4aR,10bS)-9-Ethoxy-8-methoxy-2-methyl-1,2,3,4,4a,10b-hexahydro-benzo [c][1,6]naphthyridin-6-yl)-N-isopropyl-N-(2-methoxy-ethyl)-benzamide; hydrochloride], in experiment [1], the “PDE4 [−log IC50, mol/l]” value is recorded as 8.8 mol/l. For the same compound, the IC50 in experiment [2] was 79.4 nM.
In the case of `CCOc1cc2c(cc1OC)C(c1ccc(C(=O)N(C(C)C)[C@H](C)COCc3ccccc3)cc1)=N[C@@H]1CCN(C)C[C@H]21` [Compound 8, N—((R)-2-Benzyloxy-1-methyl-ethyl)-4-((4aR,10bS)-9-ethoxy-8-methoxy-2-methyl-1,2,3,4,4a,10b-hexahydro-benzo[c][1,6]naphthyridin-6-yl)-N-isopropyl-benzamide], the “PDE4 [−log IC50, mol/l]” value in experiment [1] is on record as 9.8 mol/l. Besides, in experiment [2], the IC50 was 31.6 nM.
For `CCOc1cc2c(cc1OC)C(c1ccc(C(=O)N(C(C)C)[C@@H](C)COCc3ccccc3)cc1)=N[C@@H]1CCN(C)C[C@H]21` [Compound 9, N—((S)-2-Benzyloxy-1-methylethyl)-4-((4aR,10bS)-9-ethoxy-8-methoxy-2-methyl-1,2,3,4,4a,10b-hexahydro-benzo[c][1,6]naphthyridin-6-yl)-N-isopropyl-benzamide], the “PDE4 [−log IC50, mol/l]” value in experiment [1] came out at 9.8 mol/l. In addition, the IC50 in experiment [2] is 15.8 nM.
Regarding `CCOc1cc2c(cc1OC)C(c1ccc(C(=O)N(C(C)C)[C@@H](C)COC)cc1)=N[C@@H]1CCN(C)C[C@H]21.Cl` [Compound 11, 4-((4aR,10bS)-9-Ethoxy-8-methoxy-2-methyl-1,2,3,4,4a,10b-hexahydro-benzo [c][1,6]naphthyridin-6-yl)-N-isopropyl-N-((S)-2-methoxy-1-methyl-ethyl)-benzamide; hydrochloride], the “PDE4 [−log IC50, mol/l]” value in experiment [1] turned out to be 9.0 mol/l. The IC50 in experiment [2] was 79.4 nM.
For the compound `CCOc1cc2c(cc1OC)C(c1ccc(C(=O)N(CCOC)C3CCCCC3)cc1)=N[C@@H]1CCN(C)C[C@H]21.Cl` [Compound 12, N-Cyclohexyl-4-((4aR,10bS)-9-ethoxy-8-methoxy-2-methyl-1,2,3,4,4a,10b-hexahydro-benzo [c][1,6]naphthyridin-6-yl)-N-(2-methoxy-ethyl)-benzamide; hydrochloride], in experiment [1], the “PDE4 [−log IC50, mol/l]” value was 9.4 mol/l. In addition, the IC50 in experiment [2] is 158 nM.
As for `CCOc1cc2c(cc1OC)C(c1ccc(C(=O)N(CCCOC)C3CCCCC3)cc1)=N[C@@H]1CCN(C)C[C@H]21.Cl` [Compound 13, N-Cyclohexyl-4-((4aR,10bS)-9-ethoxy-8-methoxy-2-methyl-1,2,3,4,4a,10b-hexahydro-benzo [c][1,6]naphthyridin-6-yl)-N-(3-methoxy-propyl)-benzamide; hydrochloride], the “PDE4 [−log IC50, mol/l]” value in experiment [1] was 9.9 mol/l. Besides, in experiment [2], the IC50 was 200 nM.
On the same counts, the results for `CCOc1cc2c(cc1OC)C(c1ccc(C(=O)NCCOC)cc1)=N[C@@H]1CCN(C)C[C@H]21.Cl` [Compound 14, 4-((4aR,10bS)-9-Ethoxy-8-methoxy-2-methyl-1,2,3,4,4a,10b-hexahydro-benzo [c][1,6]naphthyridin-6-yl)-N-(2-methoxy-ethyl)-benzamide; hydrochloride] are 7.8 mol/l and 1000 nM.
`CCOc1cc2c(cc1OC)C(c1ccc(C(=O)N(C)CCOC)cc1)=N[C@@H]1CCN(C)C[C@H]21.Cl` [Compound 15, 4-((4aR,10bS)-9-Ethoxy-8-methoxy-2-methyl-1,2,3,4,4a,10b-hexahydro-benzo [c][1,6]naphthyridin-6-yl)-N-(2-methoxy-ethyl)-N-methyl-benzamide; hydrochloride]: in experiment [1], the “PDE4 [−log IC50, mol/l]” value is 8.0 mol/l. Also, the IC50 in experiment [2] is 251 nM.
Taken in the same sequence, the figures for `CCCCOCCCNC(=O)c1ccc(C2=N[C@@H]3CCN(C)C[C@@H]3c3cc(OCC)c(OC)cc32)cc1.Cl` [Compound 16, N-(3-Butoxy-propyl)-4-((4aR,10bS)-9-ethoxy-8-methoxy-2-methyl-1,2,3,4,4a,10b-hexahydro-benzo [c][1,6]naphthyridin-6-yl)-benzamide; hydrochloride] were 8.5 mol/l and 398 nM.
Consider `CCOc1cc2c(cc1OC)C(c1ccc(C(=O)N(C)[C@H](COCc3ccccc3)CC(C)C)cc1)=N[C@@H]1CCN(C)C[C@H]21` [Compound 22, N—((S)-1-Benzyloxymethyl-3-methyl-butyl)-4-((4aR,10bS)-9-ethoxy-8-methoxy-2-methyl-1,2,3,4,4a,10b-hexahydro-benzo[c][1,6]naphthyridin-6-yl)-N-methyl-benzamide], for which, in experiment [1], the “PDE4 [−log IC50, mol/l]” value is 9.4 mol/l. In experiment [2], the IC50 was 63.1 nM.
